Data: patent US20260209250A1, “CRYSTAL FORM OF KRAS G12D INHIBITOR AND PREPARATION METHOD THEREFOR” (priority 2022, published 2026)

Legend:
[1] = Long-term/accelerated stability; assay type: physicochemical
[2] = Crystal form stability study (influencing factor experiments); assay type: physicochemical
Protocol: Samples of the crystal forms A, B, C, I, J, and K of the compound represented by formula (I) were taken, spread in open containers, and left to stand under conditions of light exposure (4500 Lux), high temperatures (40° C. and 60° C.), and high humidities (RH 75% and RH 92.5%) for 30 days to investigate their stability, and the results are shown in Table 16.

[3] = 40° C., 10 days, open container
[4] = 40° C., 30 days, open container
[5] = 60° C., 10 days, open container
[6] = 60° C., 30 days, open container
[7] = 75% RH, 10 days, open container
[8] = 75% RH, 30 days, open container
[9] = 92.5% RH, 5 days, open container
[10] = 92.5% RH, 10 days, open container
[11] = 92.5% RH, 30 days, open container
[12] = light exposure (4500 Lux), 5 days, open container
[13] = light exposure (4500 Lux), 10 days, open container
[14] = light exposure (4500 Lux), 30 days, open container

CCc1c(F)ccc2cc(O)cc(-c3nc4c5c(nc(OC[C@@]67CCCN6C[C@H](F)C7)nc5c3F)N3C[C@H]5CC[C@H](N5)[C@H]3CO4)c12 [Crystal form C, 5-Ethyl-6-fluoro-4-((5aS,6S,9R)-1-fluoro-12-(((2R,7aS)-2-fluorotetrahydro-1H-pyrrolizin-7a(5H)-yl)methoxy)-5a,6,7,8,9,10-hexahydro-5H-4-oxa-3,10a,11,13,14-pentaaza-6,9-methanonaphtho[1,8-ab]heptalen-2-yl)naphthalen-2-ol]
99.0%: Purity % ([2]; 60° C., 5 days, open container) | Purity % [2, 5]
99.4%: Purity % 2 months ([1]; 40° C./75% RH) | Purity % [2, 11]
98.7%: Purity % [2, 13]
Off-white solid: Color and state ([2]; 40° C., 5 days, open container) | Color and state [2, 3] | Color and state [2, 4] | Color and state ([2]; 60° C., 5 days, open container) | Color and state [2, 5] | Color and state [2, 6] | Color and state ([2]; 75% RH, 5 days, open container) | Color and state [2, 7] | Color and state [2, 8] | Color and state [2, 9] | Color and state [2, 10] | Color and state [2, 11] | Color and state ([2]; Initial, 0 days) | Color and state [2, 12] | Color and state [2, 13]
97.9%: Purity % [2, 6] | Purity % [2, 14]
98.5%: Purity % [2, 4]
Did not change: Crystal form ([2]; 40° C., 5 days, open container) | Crystal form [2, 3] | Crystal form [2, 4] | Crystal form ([2]; 60° C., 5 days, open container) | Crystal form [2, 5] | Crystal form [2, 6] | Crystal form ([2]; 75% RH, 5 days, open container) | Crystal form [2, 7] | Crystal form [2, 8] | Crystal form [2, 9] | Crystal form [2, 10] | Crystal form [2, 11] | Crystal form [2, 12] | Crystal form [2, 13] | Crystal form [2, 14]
good physical and chemical properties: Physical and chemical properties (conclusion of influencing factor experiments) ([2]; high temperatures and high humidities for 30 days)
99.7%: Purity % 1 month ([1]; 25° C./60% RH) | Purity % Initial ([1]; 25° C./60% RH) | Purity % Initial ([1]; 40° C./75% RH) | Purity % ([2]; Initial, 0 days)
99.2%: Purity % 3 months ([1]; 40° C./75% RH) | Purity % [2, 12]
Pale yellow solid: Color and state [2, 14]
99.6%: Purity % 2 months ([1]; 25° C./60% RH) | Purity % 3 months ([1]; 25° C./60% RH) | Purity % ([2]; 75% RH, 5 days, open container) | Purity % [2, 7] | Purity % [2, 9] | Purity % [2, 10]
99.3%: Purity % ([2]; 40° C., 5 days, open container) | Purity % [2, 3]
99.5%: Purity % 1 month ([1]; 40° C./75% RH) | Purity % [2, 8]
